# Results as given in US7557133B2, “Caspase inhibitors containing isoxazoline ring” (LG Life Sciences Ltd., priority 2003, dated 2009).
# Experiments:
# caspase-1 = molecular target: T1, caspase-1 (Homo sapiens, UniProt P29466); assay: Caspase-1 inhibitory effect (fluorescent substrate AcYVAD-AFC); assay type: biochemical; conditions: pH 7.5; 25° C., 50 μM AcYVAD-AFC, 10 nM caspase-1; read-out: Caspase-1 Kobs/[I] (converted)
# T1 construct: p10 and p20 subunits (Thornberry, N. A. et al, Nature, 1992, 356, 768) were expressed in E. coli; made in house; host or cells: E. coli
# T1 sequence (P29466 120-297 limits assumed): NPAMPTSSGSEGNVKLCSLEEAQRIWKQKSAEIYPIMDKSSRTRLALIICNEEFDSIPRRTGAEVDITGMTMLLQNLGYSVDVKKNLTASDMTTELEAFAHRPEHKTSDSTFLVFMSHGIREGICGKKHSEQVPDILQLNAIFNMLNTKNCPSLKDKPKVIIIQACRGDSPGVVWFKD
# T1 sequence (P29466 317-404 limits assumed): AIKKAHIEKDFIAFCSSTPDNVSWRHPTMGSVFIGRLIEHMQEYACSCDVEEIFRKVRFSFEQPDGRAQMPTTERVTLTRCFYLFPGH
# Procedure: (§1) Caspase-1 and caspase-8 known as cysteine proteases in the form of α2β2 were expressed, purified, and activated by modifying a method known in Thornberry, N. A. et al, Nature, 1992, 356, 768. Thornberry, N. A. Methods in Enzymology, 1994, 244, 615. Walker, N. P. C. et al. Cell, 1994, 78, 343, and caspase-9 was also purified by a similar method, and the inhibitory activity against them was tested. Briefly describing, p10 and p20 subunits (Thornberry, N. A. et al, Nature, 1992, 356, 768) were expressed in E. coli and purified by nickel column and anionic exchange chromatography to give caspase-1, caspase-8 and caspase-9. The fluorescent substrate AcYVAD-AFC for thus obtained caspase-1, AcDEVD-AFC for caspase-8, and AcLEHD-AFC for caspase-9 were used for determining specific activity of the synthesized inhibitors. The enzyme reaction was carried out at 25° C. with various concentrations of the inhibitors in a buffer solution containing 50 mM HEPES(pH 7.50), 10% (w/v) sucrose, 0.1% (w/v) CHAPS, 100 mM NaCl, 1 mM EDTA, and 10 mM DTT in the presence of 50 μM AcYVAD-AFC for 10 nM caspase-1, 50 μM AcDEVD-AFC for 2.1 nM caspase-8, and 150 μM AcLEHD-AFC for 200 nM caspase-9. The inhibitory constants Ki and Kobs of the inhibitors were determined by measuring the reaction velocity with the time lapse using a fluorescent spectrometer and by obtaining the initial rate constant. Ki was calculated from the Lineweaver Burk Plot, and Kobs from the following Equation 1. Kobs=−ln(1−At/Aoo)/t Equation 1
# (§2) At means cleavate rate (%) at time t, and
# (§3) Aoo means the maximum cleavage rate (%).
# (§4) Spectra MAX GeminiXS Fluorescent Spectrometer of Molecular Device Co. was used at the excitation wavelength of 405 nm and the emission wavelength of […].
# caspase-8 = molecular target: T2, caspase-8 (Homo sapiens, UniProt Q14790); assay: Caspase-8 inhibitory effect (fluorescent substrate AcDEVD-AFC); assay type: biochemical; conditions: pH 7.5; 25° C., 50 μM AcDEVD-AFC, 2.1 nM caspase-8; read-out: Caspase-8 Kobs/[I] (converted)
# T2 construct: p10 and p20 subunits (Thornberry, N. A. et al, Nature, 1992, 356, 768) were expressed in E. coli; made in house; host or cells: E. coli
# T2 sequence (Q14790 217-374 limits assumed, species assumed): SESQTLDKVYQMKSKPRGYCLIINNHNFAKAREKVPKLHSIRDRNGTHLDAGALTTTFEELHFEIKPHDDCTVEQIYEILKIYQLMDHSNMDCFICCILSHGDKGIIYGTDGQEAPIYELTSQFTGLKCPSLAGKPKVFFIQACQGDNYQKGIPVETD
# T2 sequence (Q14790 385-479 limits assumed, species assumed): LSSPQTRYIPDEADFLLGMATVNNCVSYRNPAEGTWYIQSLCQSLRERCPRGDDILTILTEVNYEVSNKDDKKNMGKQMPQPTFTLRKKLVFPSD
# Procedure: as §1, §2, §3, §4
# [1] = system: Jurkat cell (ATCC TIB-152); assay: Jurkat cell apoptosis by Fas antibody, WST-1 method; assay type: cell-based; conditions: Homo sapiens, Jurkat, apoptosis using Fas antibody, WST-1
# Procedure: The […] inhibitory activity of the inhibitors was determined by subjecting Jurkat cell (ATCC TIB-152) to apoptosis using Fas antibody (Upstate Biotech 05-201) and by detecting the color change according to the WST-1 method known in Francoeur A. M. and Assalian A. (1996) Biochemica 3, 19-25 to observe the amount of alive Jurkat cells when the cells were treated by the inhibitor. Spectra MAX 340 Spectrometer of Molecular Device Co. was used at the absorbance wavelength of 440 nm.
# caspase-9 = molecular target: T3, caspase-9 (Homo sapiens, UniProt P55211); assay: Caspase-9 inhibitory effect (fluorescent substrate AcLEHD-AFC); assay type: biochemical; conditions: pH 7.5; 25° C., 150 μM AcLEHD-AFC, 200 nM caspase-9; read-out: Caspase-9 Kobs/[I] (converted)
# T3 construct: p10 and p20 subunits (Thornberry, N. A. et al, Nature, 1992, 356, 768) were expressed in E. coli; made in house; host or cells: E. coli
# T3 sequence (P55211 1-315 limits assumed): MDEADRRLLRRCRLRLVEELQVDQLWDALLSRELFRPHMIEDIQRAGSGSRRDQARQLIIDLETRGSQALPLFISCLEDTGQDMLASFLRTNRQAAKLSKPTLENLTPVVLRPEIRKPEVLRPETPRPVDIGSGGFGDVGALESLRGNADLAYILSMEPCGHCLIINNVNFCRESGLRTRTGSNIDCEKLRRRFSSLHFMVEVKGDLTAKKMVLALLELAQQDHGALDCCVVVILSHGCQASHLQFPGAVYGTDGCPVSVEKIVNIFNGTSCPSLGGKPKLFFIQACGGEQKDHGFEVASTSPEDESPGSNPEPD
# T3 sequence (P55211 331-416 limits assumed): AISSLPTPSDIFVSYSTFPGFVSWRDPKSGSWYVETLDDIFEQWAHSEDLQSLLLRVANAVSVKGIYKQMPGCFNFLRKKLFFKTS
# Procedure: as §1, with “The enzyme reaction was carried out at 25° C. with various concentrations of the inhibitors in a buffer solution containing 50 mM HEPES(pH 7.50), 10% (w/v) sucrose, 0.1% (w/v) CHAPS, 100 mM NaCl, 1 mM EDTA, and 10 mM DTT in the presence of 50 μM AcYVAD-AFC for 10 nM caspase-1, 50 μM AcDEVD-AFC for 2.1 nM caspase-8, and 150 μM AcLEHD-AFC for 200 nM caspase-9.” left out, “Kobs=−ln(1−At/Aoo)/t Equation 1” left out
Structure (SMILES),kinact/KI (caspase-1),kinact/KI (caspase-8),IC50 [1],kinact/KI (caspase-9)
"CCC1(C(=O)N[C@@H](CC(=O)O)C(=O)COc2c(F)c(F)cc(F)c2F)CC(c2cccc3ccccc23)=NO1 (stereo partly drawn) [Idd, (3S)-3-({[5-ethyl-3-(1-naphthyl)-4,5-dihydro-5-isoxazolyl]carbonyl}amino)-4-oxo-5-(2,3,5,6-tetrafluorophenoxy)pentanoic Acid]",5170 M⁻¹ s⁻¹,3170 M⁻¹ s⁻¹,4.25 µM,–
"CCC1(C(=O)N[C@@H](CC(=O)O)C(=O)COc2c(F)c(F)cc(F)c2F)CC(c2ccccc2)=NO1 (stereo partly drawn) [Icc, (3S)-3-{[(5-ethyl-3-phenyl-4,5-dihydro-5-isoxazolyl)carbonyl]amino}-4-oxo-5-(2,3,5,6-tetrafluorophenoxy)pentanoic acid]",3170 M⁻¹ s⁻¹,550 M⁻¹ s⁻¹,22.5 µM,–
"CC(C)c1ccccc1C1=NO[C@@](C(=O)NC(CC(=O)O)C(=O)CF)(C(C)C)C1 (stereo partly drawn) [Iaa4, 5-Fluoro-3-({[(5R)-5-isopropyl-3-(2-isopropylphenyl)-4,5-dihydro-5-isoxazolyl]carbonyl}amino)-4-oxopentanoic Acid]",–,8330 M⁻¹ s⁻¹,0.67 µM,–
"Cc1ccc2c(c1)cc(C1=NOC(C(=O)NC(CC(=O)O)C(=O)CF)(C(C)C)C1)n2C (centres unmarked) [Iaa28, 3-({[3-(1,5-dimethyl-1H-indol-2-yl)-5-isopropyl-4,5-dihydro-5-isoxazolyl]carbonyl}amino)-5-fluoro-4-oxopentanoic Acid]",–,30000 M⁻¹ s⁻¹,0.6 µM,–

# Now from value to compound:
kinact/KI (caspase-1),kinact/KI (caspase-8),IC50 [1],kinact/KI (caspase-9),Structure (SMILES)
55000 M⁻¹ s⁻¹,2330 M⁻¹ s⁻¹,37 µM,–,"CCC1(C(=O)N[C@@H](CC(=O)O)C(=O)COc2c(F)c(F)cc(F)c2F)CC(COc2ccc(Cl)c3ccccc23)=NO1 (stereo partly drawn) [Iqq, (3S)-3-{[(3-{[(4-Chloro-1-naphthyl)oxy]methyl}-5-ethyl-4,5-dihydro-5-isoxazolyl)carbonyl]amino}-4-oxo-5-(2,3,5,6-tetrafluorophenoxy)pentanoic acid]"
45000 M⁻¹ s⁻¹,25000 M⁻¹ s⁻¹,0.17 µM,5330 M⁻¹ s⁻¹,"CCC1(C(=O)NC(CC(=O)O)C(=O)CF)CC(c2nccc3ccccc23)=NO1 (centres unmarked) [Igg, 3-({[5-Ethyl-3-(1-isoquinolinyl)-4,5-dihydro-5-isoxazolyl]carbonyl}amino)-5-fluoro-4-oxopentanoic acid]"
38300 M⁻¹ s⁻¹,2830 M⁻¹ s⁻¹,3.5 µM,–,"CCC1(C(=O)N[C@@H](CC(=O)O)C(=O)COc2c(F)c(F)cc(F)c2F)CC(COc2cccc3ccccc23)=NO1 (stereo partly drawn) [Ipp, (3S)-3-[({5-Ethyl-3-[(1-naphthyloxy)methyl]-4,5-dihydro-5-isoxazolyl]carbonyl)amino]-4-oxo-5-(2,3,5,6-tetrafluorophenoxy)pentanoic acid]"
